# Source: patent publication US20160324992A1, “IDENTIFICATION AND TREATMENT OF VULNERABLE PLAQUES” (OTTAWA HEART INSTITUTE RESEARCH CORPORATION, priority 2015, published 2016)
# “And” between values parts separate entries of the source, which are not always exact repeats. Equal entries are not always repeated.
# How the values were obtained:
# [1] = test system: ApoE−/− mice with established atherosclerosis; assay: Atherosclerosis study: time-release pellets in Western diet fed ApoE−/− mice; format: in vivo, mouse
# Method: Atherosclerosis Studies. All animal experiments were performed in accordance with the Animal Care and Use Committee, University of Ottawa, Canada. Eight week old Apo E^−/− mice (total n=17 mice) were fed an adjusted calories diet (21% fat; 0.2% cholesterol, Harlan Teklad) for 4 weeks to induce atherosclerotic progression. Mice were then injected with time-release placebo or Nec-1s tablets (2 mg/kg/day), which were synthesized by Innovative Research of America, USA. Mice were euthanized after 6 weeks of treatment, perfused with saline and aortic roots were embedded in OCT medium and frozen. Aortic roots were sectioned (10 μm) and stained with hematoxylin and eosin for lesion area and necrotic core quantification, and a minimum of 10 sections per animal were measured across the length of the entire aortic root. For en face aortic lesion quantifications, aortas were dissected removing all branching vessels down to the femoral bifurcation and then sliced ventrally and images of aortas were digitally captured using ImagePro™. Lesion areas within the entire length of the aorta were quantified using Image J™ and expressed relative to the total aortic surface area. Immunohistochemistry for vascular smooth muscle cells was performed using a primary antibody for a-smooth muscle actin (monoclonal, Sigma) conjugated to alkaline phosphatase and visualized using SigmaFAST Red (Sigma). Statistical significance between the two groups were analyzed using Students' t-test (p<0.05).
# Atherosclerosis Studies. All animal experiments were performed in accordance with the Animal Care and Use Committee, University of Ottawa, Canada. Eight week old apoE−/− mice (total n=17 mice) were fed an adjusted calories diet (21% fat; 0.2% cholesterol, Harlan Teklad) for 4 weeks to induce atherosclerotic progression. Mice were then injected with time-release placebo or stable Necrostatin-1 (Nec-1)15 tablets (2 mg/kg/day), which were synthesized by Innovative Research of America, USA. Mice were euthanized after 6 weeks of treatment, perfused with saline and aortic roots were embedded in OCT medium and frozen. Aortic roots were sectioned (10 μm) and stained with hematoxylin and eosin for lesion area and necrotic core quantification, and a minimum of 10 sections per animal were measured across the length of the entire aortic root. For en face aortic lesion quantifications, aortas were dissected removing all branching vessels down to the femoral bifurcation and then sliced ventrally and images of aortas were digitally captured using ImageProTM. Lesion areas within the entire length of the aorta were quantified using Image JTM and expressed relative to the total aortic surface area. Immunohistochemistry to visualize macrophages and smooth muscle cells was performed using primary antibodies to CD68 (rat monoclonal, Serotec) or phosho-MLKL (rabbit polyclonal, Abcam) with a secondary conjugated to biotin and α-smooth muscle actin (monoclonal, Sigma) conjugated to alkaline phosphatase and visualized using DAB or SigmaFAST Red (Sigma), respectively. Image J was used to quantify positive staining area and statistical significance between the two groups were analyzed using Students' t-test (p<0.05)
# [2] = test system: RIP3; assay: Western blot of RIP3 phosphorylation (band shift) in BMDMs; format: cell-based, mouse
# Method: Western blot analysis. For western blot analysis of RIP3, cells were lysed in 1.25×sample buffer (83 mM Tris pH 6.8, 6.7% SDS, 13.3% Glycerol, 1.3% β-mercaptoethanol, 0.03% bromophenol blue) and boiled at 100° C. for 5 minutes prior to being subjected to SDS-PAGE and western blot analysis as previously described (Robinson et al., 2012). PVDF membranes were blocked with 5% skim milk, followed by incubation with RIP3 (ProSci Inc, 1:500) or HSP90 (Santa Cruz Biotechnology, 1:1000) antibodies. For analysis of MLKL protein, cells were lysed in ice-cold M2 lysis buffer (50 mM NaF, 20 mM Tris, pH 7.0, 0.5% NP40, 250 mM NaCl, 3 mM EDTA, 3 mM EGTA, supplemented with Roche protease and phosphatase inhibitor cocktails) for 30 mins before centrifugation to pellet insoluble component. Samples were mixed 3:1 with 4×sample loading buffer (Bio-Rad) prior to SDS PAGE and western blot analysis. PVDF membranes were blocked in 5% BSA and probed with MLKL (Millipore, 1:500) or GAPDH (Millipore, 1:1000) antibodies. Goat anti-mouse (1:2500) or anti-rabbit (1:5000) or anti-rat (1:2500) IRDye® secondary antibodies (Rockland) were utilized. The protein bands were visualized using Odyssey Infrared Imaging System (LI-COR Biotechnology).
# Western blot analysis. […]
compound,measurement,setting,value
"CN1C(=O)C(Cc2c[nH]c3ccccc23)NC1=S (stereo not drawn) [Nec-1, necrostatin-1]",body weight (in words),"[1]; 2 mg/kg/day, 6 weeks, data not shown",not affected
same,"CD68+ macrophage area, % of lesion area","[1]; 2 mg/kg/day, 6 weeks, placebo 34.4%±3.2, p=ns",43.5%±3.7
same,increase of smooth muscle actin area within the aortic sinus,"[1]; 2 mg/kg/day, 6 weeks, vs placebo",70%
same,atherosclerotic lesion area versus placebo (in words),[1]; Western diet 4 weeks then 2 mg/kg/day for 6 weeks,reduced lesion area in the aortic sinus and aorta
same,reduction of aortic root lesion area compared to controls,"[1]; Western diet, 2 mg/kg/day, 6 weeks",27%
same,aortic root lesion area,"[1]; Western diet, 2 mg/kg/day, 6 weeks, placebo 0.50±0.03 mm^2",0.37±0.05 mm^2
same,en face lesion area as a % of total aorta area,"[1]; Western diet, 2 mg/kg/day, 6 weeks, placebo 9.9±0.9%",3.1±0.3%
same,reduction of en face lesion burden compared to placebo,"[1]; Western diet, time-release pellet 2 mg/kg/day, 6 weeks, ascending and descending aorta",68%
same,reduction of pMLKL positive area compared to placebo controls,"[1]; aortic sinus lesions, 2 mg/kg/day, 6 weeks",63%
same,reduction of lesion necrotic core area compared to placebo,"[1]; aortic sinus, 2 mg/kg/day, 6 weeks",62.6% and 62%
same,RIP3 phosphorylation induced by oxLDL and DAMPs (in words),"[2]; BMDMs co-incubated with oxLDL and DAMPs, 8 hours",can be inhibited
same,oxLDL-induced RIP3 phosphorylation (in words),"[2]; BMDMs, oxLDL±zVAD.fmk±Nec-1, 8 hours",dampened
